This is an account of results in patent publication US6613880B2, “Pipecolic acid derivatives of proline threonine amides useful for the treatment of rheumatoid arthritis” (Pharmacia Corporation, priority 1995, dated 2003).

Square brackets hold non-standard residues; d marks the D form. Peptide text beside a SMILES is read from it. * marks the point of attachment. ξ: configuration not given here. Butanoyl(3S-cHex) = C[C@@H](CC(=O)*)C1CCCCC1; Propanoyl(3-cHex) = O=C(CCC1CCCCC1)*; Thr(3ξ) = CC(O)[C@H](N)C(=O)O; Leu(ol) = CC(C)C[C@H](N)CO; Pip = O=C(O)[C@@H]1CCCCN1; NHPr = CCCN*

For the assay, the target named is T1, DR(αβ1*0401) molecules (DR4) (Homo sapiens, UniProt P01903+P01911, A100K/A169T/F76Y/I96L/K127E/L162R/M171V/N62H/P40V/Q125Y/R42H/S133A/S149N/S66Y/V115G/V209L/W38E).
T1 construct: made in house
Put plainly: Competitive Binding for DR4 (Competition Capture ELISA). Particulars: competition with 50 nM biotinylated ML37-49 peptide for immunoaffinity purified DRB1*0401, pH 5.5, overnight at 37° C. The protocol: Competitive Binding for DR4 (Competition Capture ELISA)
DR(αβ1*0401) molecules are affinity purified with L243 monoclonal antibody (hybridoma obtained from ATCC) using a modification of a published procedure (Gorga, J. C., et al., 1991. Res. Immunol. 142:401-407.). Duplicate samples of immunoaffinity purified DRB1*0401 molecules (0.5 μg/well) are incubated overnight at 37° C. with 50 nM biotinylated ML37-49 peptide in the presence or absence of 1 nM to 100 μM competitor peptides in 96-well polypropylene microtiter plates (Costar, Cambridge, Mass.). All dilutions are made in phosphate buffered saline, pH 5.5 containing 1% octaglucoside (Boehringher Mannheim). LB3.1 antibody (obtained from J. Strominger, Cambridge, Mass.) is plated onto flat-bottom 96-well polystyrene microtiter plates (Falcon, Becton-Dickinson, Mountainview, Calif.) in 0.1 M carbonate coating buffer, pH 9.6 overnight at 4° C. Antibody coated microtiter plates are blocked with 1% Carnation nonfat milk for 1 hr at room temperature. The plates are washed 3 times with PBS containing 0.05% Tween 20 (Biorad, Hercules, Calif.). The class II/peptide mixtures are added, incubated for 1 hr at 37° C., and washed as described above. Extravidin conjugated horseradish peroxidase (1:1000, Sigma Chemicals) is added to the wells and incubated for 30-60 min at 37° C. The plates are washed again, then incubated with o-phenylenediamine dihydrochloride and H2O2 (Sigma Chemicals, St. Louis, Mo.) in 0.5 M phosphate-citrate buffer, pH 5.0. The absorbance of each well is read at 450 nm.
As to `CC(C)C[C@@H](CO)NC(=O)[C@@H](NC(=O)[C@@H]1CCCN1C(=O)[C@H](CC(=O)O)NC(=O)[C@@H]1CCCCN1C(=O)[C@H](CCCCN)NC(=O)C[C@H](C)C1CCCCC1)[C@@H](C)O` [Example 4, (S)-CBA-Lys-Pec-Asp-Pro-Thr-leucinol] ({Butanoyl(3S-cHex)}-K[Pip]DPT[Leu(ol)]), the IC50 came to 116 nM.

For the compound `CCCNC(=O)[C@@H](NC(=O)[C@@H]1CCCN1C(=O)[C@H](CC(=O)O)NC(=O)[C@@H]1CCCCN1C(=O)[C@@H](NC(=O)C[C@H](C)C1CCCCC1)C(C)C)C(C)O` (stereo partly drawn) [Example 1, (S)-CBA-Val-Pec-Asp-Pro-Thr-propylamide] ({Butanoyl(3S-cHex)}-V[Pip]DP[Thr(3ξ)]-NHPr), the IC50 was found to be 30 nM. `CCCNC(=O)[C@@H](NC(=O)[C@@H]1CCCN1C(=O)[C@H](CC(=O)O)NC(=O)[C@@H]1CCCCN1C(=O)[C@H](CCCCN)NC(=O)CCC1CCCCC1)[C@@H](C)O` [Example 3, CPA-Lys-Pec-Asp-Pro-Thr-propylamide] ({Propanoyl(3-cHex)}-K[Pip]DPT-NHPr) displayed a half-maximal inhibitory concentration (IC50) of 259 nM.

The compound “(S)-CBA-Lys-Pec-Asp-Pro-Thr-propylamide [Example 2]” showed an IC50 of 289 nM.
